# In ChEMBL document CHEMBL3885861, “Open TG-GATES”:
# Organism: Rattus norvegicus
# Experiment: Open TG-GATES - Regimen: Single
# Assay type: toxicity, organism-based, Sprague-Dawley
# Design: regimen Single, gender Male, age 6 weeks
# Conditions: in vivo, po, 30 mg/kg, route gavage, dose level Middle; for APTT / Bas / Eos / Fbg / Hb / Ht / Lym / MCH / MCHC / MCV / Mono / Neu / PT / Plat / RBC / Ret / WBC: tissue Blood; for KIDNEY_L / KIDNEY_R / KIDNEY_TOTAL: tissue Kidney; for LIVER: tissue Liver; for ALP / ALT / AST / BUN / CRE / Ca / DBIL / GLC / IP / K / LDH / Na / PL / RALB / TBIL / TC / TG / TP / gamma-GTP: tissue Plasma
smiles,measurement,setting,value
CSc1ccc2c(c1)N(CCC1CCCCN1C)c1ccccc1S2 (configuration not stated) [THIORIDAZINE],TERMINAL_BW,3 h,215.8 g
same,APTT,3 h,16.7 s
same,Bas,3 h,0%
same,Eos,3 h,1%
same,Fbg,3 h,201.2 mg/dL
same,Hb,3 h,12.4 g/dL
same,Ht,3 h,37.2%
same,Lym,3 h,73.8%
same,MCH,3 h,22.1 pg
same,MCHC,3 h,33.3%
same,MCV,3 h,66.4 fL
same,Mono,3 h,8.8%
same,Neu,3 h,16.8%
same,PT,3 h,12.5 s
same,Plat,3 h,102.7 x10_4/uL
same,RBC,3 h,560.6 x10_4/ul
same,Ret,3 h,8.6%
same,WBC,3 h,77.9 x10_2/uL
same,KIDNEY_L,3 h,1 g
same,KIDNEY_R,3 h,1 g
same,KIDNEY_TOTAL,3 h,2 g
same,LIVER,3 h,10.5 g
same,ALP,3 h,794 IU/L
same,ALT,3 h,37.8 IU/L
same,AST,3 h,66.6 IU/L
same,BUN,3 h,12.4 mg/dL
same,CRE,3 h,0.5 mg/dL
same,Ca,3 h,11.1 mg/dL
same,DBIL,3 h,0.04 mg/dL
same,GLC,3 h,206.6 mg/dL
same,IP,3 h,10.3 mg/dL
same,K,3 h,4.4 meq/L
same,LDH,3 h,91.2 IU/L
same,Na,3 h,139 meq/L
same,PL,3 h,127.2 mg/dL
same,RALB,3 h,3.6 g/dL
same,TBIL,3 h,0.4 mg/dL
same,TC,3 h,70.2 mg/dL
same,TG,3 h,43.6 mg/dL
same,TP,3 h,5.2 g/dL
same,gamma-GTP,3 h,1 IU/L
same,TERMINAL_BW,6 h,216.3 g
same,APTT,6 h,15.9 s
same,Bas,6 h,0%
same,Eos,6 h,0.6%
same,Fbg,6 h,230.2 mg/dL
same,Hb,6 h,12.5 g/dL
same,Ht,6 h,37.5%
same,Lym,6 h,74.2%
same,MCH,6 h,21.9 pg
same,MCHC,6 h,33.2%
same,MCV,6 h,66 fL
same,Mono,6 h,7.8%
same,Neu,6 h,17.4%
same,PT,6 h,12 s
same,RBC,6 h,569.4 x10_4/ul
same,Ret,6 h,8%
same,WBC,6 h,91.2 x10_2/uL
same,KIDNEY_L,6 h,1 g
same,KIDNEY_R,6 h,1 g
same,KIDNEY_TOTAL,6 h,2 g
same,LIVER,6 h,10.3 g
same,ALP,6 h,765.6 IU/L
same,ALT,6 h,30.2 IU/L
same,AST,6 h,63.2 IU/L
same,BUN,6 h,10.2 mg/dL
same,CRE,6 h,0.5 mg/dL
same,Ca,6 h,10.8 mg/dL
same,DBIL,6 h,0.022 mg/dL
same,GLC,6 h,208.6 mg/dL
same,IP,6 h,10.9 mg/dL
same,K,6 h,4.5 meq/L
same,LDH,6 h,98.4 IU/L
same,Na,6 h,139.4 meq/L
same,PL,6 h,154 mg/dL
same,RALB,6 h,3.8 g/dL
same,TBIL,6 h,0.4 mg/dL
same,TC,6 h,81.4 mg/dL
same,TG,6 h,62.8 mg/dL
same,TP,6 h,5.4 g/dL
same,gamma-GTP,6 h,1.6 IU/L
same,TERMINAL_BW,9 h,213.1 g
same,APTT,9 h,16.2 s
same,Bas,9 h,0%
same,Eos,9 h,0.4%
same,Fbg,9 h,213.4 mg/dL
same,Hb,9 h,12.6 g/dL
same,Ht,9 h,38%
same,Lym,9 h,80.6%
same,MCH,9 h,21.8 pg
same,MCHC,9 h,33.3%
same,MCV,9 h,65.6 fL
same,Mono,9 h,6%
same,Neu,9 h,13.2%
same,PT,9 h,12.3 s
same,Plat,9 h,108 x10_4/uL
same,RBC,9 h,578.8 x10_4/ul
same,Ret,9 h,7.8%
same,WBC,9 h,109.8 x10_2/uL
same,KIDNEY_L,9 h,0.9 g
same,KIDNEY_R,9 h,1 g
same,KIDNEY_TOTAL,9 h,1.9 g
same,LIVER,9 h,9.6 g
same,ALP,9 h,971.8 IU/L
same,ALT,9 h,28.2 IU/L
same,AST,9 h,58.2 IU/L
same,BUN,9 h,12.6 mg/dL
same,CRE,9 h,0.6 mg/dL
same,Ca,9 h,10.9 mg/dL
same,DBIL,9 h,0.018 mg/dL
same,GLC,9 h,215.6 mg/dL
same,IP,9 h,10.6 mg/dL
same,K,9 h,4.3 meq/L
same,LDH,9 h,82.4 IU/L
same,Na,9 h,141 meq/L
same,PL,9 h,148.8 mg/dL
same,RALB,9 h,3.8 g/dL
same,TBIL,9 h,0.4 mg/dL
same,TC,9 h,82.2 mg/dL
same,TG,9 h,59.6 mg/dL
same,TP,9 h,5.6 g/dL
same,gamma-GTP,9 h,1.4 IU/L
same,TERMINAL_BW,24 h,225.1 g
same,APTT,24 h,16 s
same,Bas,24 h,0%
same,Eos,24 h,1%
same,Fbg,24 h,215.4 mg/dL
same,Hb,24 h,13.4 g/dL
same,Ht,24 h,40.3%
same,Lym,24 h,77.2%
same,MCH,24 h,21.5 pg
same,MCHC,24 h,33.3%
same,MCV,24 h,64.6 fL
same,Mono,24 h,9%
same,Neu,24 h,12.8%
same,PT,24 h,12.1 s
same,Plat,24 h,108 x10_4/uL
same,RBC,24 h,623.4 x10_4/ul
same,Ret,24 h,8%
same,WBC,24 h,124.9 x10_2/uL
same,KIDNEY_L,24 h,1 g
same,KIDNEY_R,24 h,1 g
same,KIDNEY_TOTAL,24 h,2 g
same,LIVER,24 h,11.7 g
same,ALP,24 h,905.2 IU/L
same,ALT,24 h,43 IU/L
same,AST,24 h,69.8 IU/L
same,BUN,24 h,19.4 mg/dL
same,CRE,24 h,0.5 mg/dL
same,Ca,24 h,11.5 mg/dL
same,DBIL,24 h,0.062 mg/dL
same,GLC,24 h,190.2 mg/dL
same,IP,24 h,9.3 mg/dL
same,K,24 h,4.9 meq/L
same,LDH,24 h,89.2 IU/L
same,Na,24 h,139.2 meq/L
same,PL,24 h,163 mg/dL
same,RALB,24 h,4 g/dL
same,TBIL,24 h,0.3 mg/dL
same,TC,24 h,84.4 mg/dL
same,TG,24 h,119.8 mg/dL
same,TP,24 h,5.9 g/dL
